Laboratory results reported in US12275729B2 (Merck Sharp & Dohme LLC, priority 2017, dated 2025).

What follows are compounds tested against IDO1 (Homo sapiens, UniProt P14902) (assay: IDO1 Cellular Assay in HeLa Cells Stimulated with IFNγ). Details: about 48 hours, read-out: Hela IC50.
Assay type: cell-based
Description: Biological Assays IDO1 Cellular Assay in HeLa Cells Stimulated with IFNγ
HeLa cells were cultured in complete HeLa culture medium (90% EMEM, 10% heat-inactivated fetal bovine serum) and expanded to about 1×10^9 cells. The cells were then collected and frozen down at 1×10^7 cells/vial in 1 mL frozen medium (90% complete HeLa culture medium, 10% DMSO).
Compounds to be tested were serially diluted in ten 3-fold steps in DMSO starting from 10 mM DMSO stocks in Echo low volume plate(s).
Frozen HeLa cells were thawed and transferred into HeLa assay medium (99% complete HeLa culture medium, 1% Pen/Strep) with 20 mL medium/vial of cells. The cells were spun down at 250 g in a table top centrifuge for 5 min and suspended in same volume of HeLa assay medium. The cells were then counted and adjusted to a density of 2×10^5 cells/mL in HeLa assay medium. Sterile L-tryptophan were added to the cells with final concentration of 300 uM L-tryptophan. A small aliquot (2 mL/plate) of HeLa cells were set aside and were not treated with IFNγ, to serve as the Max-E control.
HeLa cells with and without IFNγ were dispensed to the respective wells of 384-well assay plates containing the compounds. The plates were incubated for about 48 hours at a 37° C., 5% CO2 incubator. Afterwards, 12 μL of 0.5 M methyl isonipecotate in dimethyl sulfoxide were added into each well and the plates were sealed and incubated at 37° C. without CO2 overnight. The plates were centrifuged for 1 min at 200×g. The resulting fluorescence was measured in a Spectramax plate reader (Molecular Devices) with a 400 nm excitation filter and a 510 nm emission filter.
Potencies were calculated by […] least squares fit to the four parameter logistic IC50 equation.

IDO1, sequence (P14902 whole entry): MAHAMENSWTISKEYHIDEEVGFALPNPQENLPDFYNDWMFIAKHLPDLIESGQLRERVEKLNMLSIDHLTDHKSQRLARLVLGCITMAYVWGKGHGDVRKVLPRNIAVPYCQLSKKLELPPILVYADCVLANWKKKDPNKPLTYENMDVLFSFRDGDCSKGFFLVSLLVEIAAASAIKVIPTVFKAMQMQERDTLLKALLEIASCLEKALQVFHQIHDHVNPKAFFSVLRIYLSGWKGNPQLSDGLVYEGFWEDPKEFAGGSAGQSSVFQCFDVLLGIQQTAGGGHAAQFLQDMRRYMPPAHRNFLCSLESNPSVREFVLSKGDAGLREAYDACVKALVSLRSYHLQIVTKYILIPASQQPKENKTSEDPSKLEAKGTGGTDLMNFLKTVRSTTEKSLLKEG

Compound	IC50
CC(C)CC(=O)N1CCCc2cc(CNC(=O)c3cccc(Cl)c3)ccc21 [Example 2, 3-chloro-N-{[1-(3-methylbutanoyl)-1,2,3,4-tetrahydroquinolin-6-yl]methyl}benzamide]	103 nM
CC(C)CC(=O)N1CCCc2cc(CNC(=O)c3ccc(F)c(F)c3)ccc21 [Example 10, 3,4-difluoro-N-{[1-(3-methylbutanoyl)-1,2,3,4-tetrahydroquinolin-6-yl]methyl}benzamide]	161 nM
CCn1cc(C(=O)N2CCCc3cc(C4(C(=O)Nc5ccc(F)cc5)CCC4)ccc32)cn1 [Example 112, 1-[1-(1-ethyl-1H-pyrazole-4-carbonyl)-1,2,3,4-tetrahydroquinolin-6-yl]-N-(4-fluorophenyl)cyclobutane-1-carboxamide]	2.7 nM
C[C@H](C(=O)Nc1ccc(F)cc1)c1ccc2c(c1)CCCN2C(=O)C1CC(F)(F)C1 [Example 79, (2S)-2-[1-(3,3-difluorocyclobutane-1-carbonyl)-1,2,3,4-tetrahydroquinolin-6-yl]-N-(4-fluorophenyl)propanamide]	34.7 nM
C[C@@H](NC(=O)c1ccc(F)cc1)c1ccc2c(c1)CCCN2C(=O)C1(F)CC1 (single isomer, unassigned) [Example 31]	1230 nM
CC(NC(=O)c1ccc(F)cc1)c1ccc2c(n1)C(=O)CCN2C(=O)C1CC1 (stereo not drawn) [Example 192, N-(1-(5-(cyclopropanecarbonyl)-8-oxo-5,6,7,8-tetrahydro-1,5-naphthyridin-2-yl)ethyl)-4-fluorobenzamide]	825 nM
O=C(c1nnc(C(F)(F)F)[nH]1)N1CCCc2cc(C3(C(=O)Nc4ccc(F)cc4)CCC3)ccc21 [Example 110, N-(4-fluorophenyl)-1-{1-[5-(trifluoromethyl)-4H-1,2,4-triazole-3-carbonyl]-1,2,3,4-tetrahydroquinolin-6-yl}cyclobutane-1-carboxamide]	248 nM
C[C@H](C(=O)Nc1ccc(Cl)cc1)c1ccc2c(c1)CCCN2C(=O)c1cccc(Cl)c1 (single isomer, unassigned) [Example 56]	3.1 nM

Second part, the compound after the results:

IC50	Compound
2650 nM	CC(NC(=O)c1ccc(F)cc1)c1ccc2c(n1)C(F)(F)CCN2C(=O)C1CC1 (single isomer, unassigned) [Example 194, N-(1-(5-(cyclopropanecarbonyl)-8,8-difluoro-5,6,7,8-tetrahydro-1,5-naphthyridin-2-yl)ethyl)-4-fluorobenzamide]
30.9 nM	CC(C)C(C(=O)Nc1ccc(F)cc1)c1ccc2c(n1)CCCN2C(=O)C1CC1 (stereo not drawn) [Example 264, 2-(5-(cyclopropanecarbonyl)-5,6,7,8-tetrahydro-1,5-naphthyridin-2-yl)-N-(4-fluorophenyl)-3-methylbutanamide]

Same assay, conditions: read-out: Hela IC50

IC50	Compound
74.5 nM	CC(NC(=O)c1ccc(F)cc1)c1ccc2c(n1)CCCN2c1cc(F)ccn1 (stereo not drawn) [Example 380, 4-fluoro-N-(1-(5-(4-fluoropyridin-2-yl)-5,6,7,8-tetrahydro-1,5-naphthyridin-2-yl)ethyl)benzamide]
697 nM	CC(NC(=O)c1ccc(F)cc1)c1ccc2c(n1)CCCN2c1cc2n(n1)CCC2 (stereo not drawn) [Example 369, N-(1-(5-(5,6-dihydro-4H-pyrrolo[1,2-b]pyrazol-2-yl)-5,6,7,8-tetrahydro-1,5-naphthyridin-2-yl)ethyl)-4-fluorobenzamide]
1300 nM	CC(NC(=O)c1ccc(F)cc1)c1ccc2c(n1)CCCN2C(=O)OCCCn1ccnc1 (stereo not drawn) [Example 325, 3-(1H-imidazol-1-yl)propyl 6-(1-(4-fluorobenzamido)ethyl)-3,4-dihydro-1,5-naphthyridine-1(2H)-carboxylate]
1.81 nM	CC(C(=O)Nc1ccc(F)cc1)c1ccc2c(n1)CCCN2c1ccnc(C2CC2)n1 (stereo not drawn) [Example 367, 2-(5-(2-cyclopropylpyrimidin-4-yl)-5,6,7,8-tetrahydro-1,5-naphthyridin-2-yl)-N-(4-fluorophenyl)propanamide]

Compound	IC50
C[C@H](NC(=O)c1ccc(F)cc1)c1ccc2c(n1)CCCN2c1cccc(OC(C)(C)C)n1 [Example 385, (S)-N-(1-(5-(6-(tert-butoxy)pyridin-2-yl)-5,6,7,8-tetrahydro-1,5-naphthyridin-2-yl)ethyl)-4-fluorobenzamide]	968 nM
